Measurements taken from patent US8216786B2, “Genetic polymorphisms associated with cardiovascular diseases, methods of detection and uses thereof” (Celera Corporation, priority 2008, dated 2012).

Test system: individuals who have previously had an MI
Test: CARE trial: effect of pravastatin vs placebo on coronary events (endpt1, rmi) by SNP genotype subgroup
Assay type: in vivo, human
Conditions: for HR: pravastatin vs placebo
Description: In Tables 21-22, the column labeled “Endpoint” indicates whether the endpoint that was analyzed was the primary endpoint of the CARE study (a composite endpoint of fatal coronary event or nonfatal MI, and identified as “endpt1”) or a composite endpoint of confirmed fatal or nonfatal MI (identified as “rmi”). […] As used herein, the term “benefit” (with respect to a preventive or therapeutic drug treatment) is defined as achieving a reduced risk for a disease that the drug is intended to treat or prevent (e.g., CVD such as CHD, particularly MI, or hypertension) by administering the drug treatment, compared with the risk for the disease in the absence of receiving the drug treatment (or receiving a placebo in lieu of the drug treatment) for the same genotype. […] J. […] (1996) New England Journal of Medicine 335: 1001-1009. […] A well-documented MI was one of the enrollment criteria for entry into the CARE study. Patients were enrolled in the CARE trial from 80 participating study centers. […] For the study of CARE described in this Example and shown in Tables 21-22, two endpoints were investigated: the primary endpoint of CARE (a composite endpoint of fatal coronary event or nonfatal MI, and identified as “endpt1” in the Endpoint column of Tables 21-22) and a composite endpoint of confirmed fatal or nonfatal MI (identified as “rmi” in the Endpoint column of Tables 21-22). […] HR stands for Hazard Ratio, which is a concept similar to Odds Ratio (OR). The HR in event-free survival analysis is the effect of an explanatory variable on the hazard or risk of an event. […] In Table 21, p-interaction values were calculated. An interaction (or effect modification) is formed when a third variable modifies the relation between an exposure and outcome. […] Genotype and drug interaction is present when the effect of statins (incidence rate of disease in statin-treated group, as compared to placebo) differs in patients with different genotypes.

[1] = endpt1, hCV8851065 rs9277343 HLA-DPA1, GC + CC
[2] = endpt1, hCV8851065 rs9277343 HLA-DPA1, GG
[3] = endpt1, hCV8851085 rs1042153 HLA-DPB1, AG + AA
[4] = endpt1, hCV8851085 rs1042153 HLA-DPB1, GG
[5] = endpt1, hCV8851095 rs1042335 HLA-DPB1, TC + CC
[6] = endpt1, hCV8851095 rs1042335 HLA-DPB1, TT
[7] = endpt1, hCV8895373 rs1503185 PTPRJ, AG + AA
[8] = endpt1, hCV8895373 rs1503185 PTPRJ, GG
[9] = endpt1, hCV8901525 rs861539 KLC1, AG + AA
[10] = endpt1, hCV8901525 rs861539 KLC1, GG
[11] = endpt1, hCV8921288 rs1060621 GAPDH, AA
[12] = endpt1, hCV8921288 rs1060621 GAPDH, CA + CC
[13] = endpt1, hCV9055799 rs3734311 IMPG1, CC
[14] = endpt1, hCV9055799 rs3734311 IMPG1, CG + GG
[15] = endpt1, hCV9077561 rs1801274 FCGR2A, AA
[16] = endpt1, hCV9077561 rs1801274 FCGR2A, GA + GG
[17] = endpt1, hCV9506149 rs1250259 FN1, AA
[18] = endpt1, hCV9506149 rs1250259 FN1, TA + TT
[19] = endpt1, hCV9596963 rs6115 SERPINA5, GA + AA
[20] = endpt1, hCV9596963 rs6115 SERPINA5, GG
[21] = endpt1, hCV9604851 rs1805002 CCKBR, AG + AA
[22] = endpt1, hCV9604851 rs1805002 CCKBR, GG
[23] = endpt1, hCV25630686 PSMB9, TC + TT
[24] = endpt1, hCV25631989 rs1135983 ATF6, CC
[25] = endpt1, hCV25631989 rs1135983 ATF6, TC + TT
[26] = endpt1, hCV25637309 rs3204849 CCRL2, AA
[27] = endpt1, hCV25637309 rs3204849 CCRL2, AT + TT
[28] = endpt1, hCV25644901 ITGA9, GA + GG
[29] = endpt1, hCV25651076 rs5743291 NOD2, AG + AA
[30] = endpt1, hCV25651076 rs5743291 NOD2, GG
[31] = endpt1, hCV25651174 rs9277356 HLA-DPB1, GA + GG
[32] = endpt1, hCV342590 rs6030 F5, Strata CC
[33] = endpt1, hCV342590 rs6030 F5, Strata CT
[34] = endpt1, hCV342590 rs6030 F5, Strata TT
[35] = endpt1, hCV435368 rs2812 PECAM1, Strata CC
[36] = endpt1, hCV435368 rs2812 PECAM1, Strata TC
[37] = endpt1, hCV435368 rs2812 PECAM1, Strata TT
[38] = endpt1, hCV3135085 rs10795446 CUBN, Strata GT
[39] = endpt1, hCV3135085 rs10795446 CUBN, Strata TT
[40] = endpt1, hCV3275199 rs2069885 IL9, Strata AA
[41] = endpt1, hCV3275199 rs2069885 IL9, Strata AG
[42] = endpt1, hCV3275199 rs2069885 IL9, Strata GG

SMILES: CC[C@H](C)C(=O)O[C@H]1C[C@H](O)C=C2C=C[C@H](C)[C@H](CC[C@@H](O)C[C@@H](O)CC(=O)O)[C@H]21 [pravastatin]
- NONEVENT (Pravastatin arm) (endpt1, hCV8851047 rs45614833 HLA-DPA1, CT + TT): 1229
- EVENTS (Pravastatin arm) [1]: 120
- NONEVENT (Pravastatin arm) [1]: 1198
- EVENTS (Pravastatin arm) [2]: 13
- NONEVENT (Pravastatin arm) [2]: 90
- EVENTS (Pravastatin arm) [3]: 58
- NONEVENT (Pravastatin arm) [3]: 491
- EVENTS (Pravastatin arm) [4]: 74
- NONEVENT (Pravastatin arm) [4]: 798
- EVENTS (Pravastatin arm) [5]: 126
- NONEVENT (Pravastatin arm) [5]: 1216
- EVENTS (Pravastatin arm) [6]: 7
- NONEVENT (Pravastatin arm) [6]: 40
- EVENTS (Pravastatin arm) [7]: 53
- NONEVENT (Pravastatin arm) [7]: 409
- EVENTS (Pravastatin arm) [8]: 80
- NONEVENT (Pravastatin arm) [8]: 882
- EVENTS (Pravastatin arm) [9]: 88
- NONEVENT (Pravastatin arm) [9]: 759
- EVENTS (Pravastatin arm) [10]: 45
- NONEVENT (Pravastatin arm) [10]: 504
- EVENTS (Pravastatin arm) [11]: 97
- NONEVENT (Pravastatin arm) [11]: 815
- EVENTS (Pravastatin arm) [12]: 36
- NONEVENT (Pravastatin arm) [12]: 440
- EVENTS (Pravastatin arm) [13]: 15
- NONEVENT (Pravastatin arm) [13]: 247
- EVENTS (Pravastatin arm) [14]: 117
- NONEVENT (Pravastatin arm) [14]: 1040
- EVENTS (Pravastatin arm) [15]: 36
- NONEVENT (Pravastatin arm) [15]: 300
- EVENTS (Pravastatin arm) [16]: 96
- NONEVENT (Pravastatin arm) [16]: 985
- EVENTS (Pravastatin arm) (endpt1, hCV9494470, GG): 100
- NONEVENT (Pravastatin arm) (endpt1, hCV9494470, GG): 884
- EVENTS (Pravastatin arm) (endpt1, hCV9494470, TG + TT): 33
- NONEVENT (Pravastatin arm) (endpt1, hCV9494470, TG + TT): 407
- EVENTS (Pravastatin arm) [17]: 64
- NONEVENT (Pravastatin arm) [17]: 678
- EVENTS (Pravastatin arm) [18]: 69
- NONEVENT (Pravastatin arm) [18]: 611
- EVENTS (Pravastatin arm) [19]: 106
- NONEVENT (Pravastatin arm) [19]: 1147
- EVENTS (Pravastatin arm) [20]: 26
- NONEVENT (Pravastatin arm) [20]: 136
- EVENTS (Pravastatin arm) [21]: 19
- NONEVENT (Pravastatin arm) [21]: 113
- EVENTS (Pravastatin arm) [22]: 114
- NONEVENT (Pravastatin arm) [22]: 1178
- EVENTS (Pravastatin arm) (endpt1, hCV25630686 PSMB9, CC): 128
- NONEVENT (Pravastatin arm) (endpt1, hCV25630686 PSMB9, CC): 1206
- EVENTS (Pravastatin arm) [23]: 5
- NONEVENT (Pravastatin arm) [23]: 85
- EVENTS (Pravastatin arm) [24]: 107
- NONEVENT (Pravastatin arm) [24]: 1044
- EVENTS (Pravastatin arm) [25]: 26
- NONEVENT (Pravastatin arm) [25]: 198
- EVENTS (Pravastatin arm) [26]: 24
- NONEVENT (Pravastatin arm) [26]: 184
- EVENTS (Pravastatin arm) [27]: 109
- NONEVENT (Pravastatin arm) [27]: 1107
- EVENTS (Pravastatin arm) (endpt1, hCV25640504, TC + CC): 113
- NONEVENT (Pravastatin arm) (endpt1, hCV25640504, TC + CC): 1035
- EVENTS (Pravastatin arm) (endpt1, hCV25640504, TT): 12
- NONEVENT (Pravastatin arm) (endpt1, hCV25640504, TT): 194
- EVENTS (Pravastatin arm) (endpt1, hCV25644901 ITGA9, AA): 124
- NONEVENT (Pravastatin arm) (endpt1, hCV25644901 ITGA9, AA): 1171
- EVENTS (Pravastatin arm) [28]: 9
- NONEVENT (Pravastatin arm) [28]: 120
- EVENTS (Pravastatin arm) [29]: 28
- NONEVENT (Pravastatin arm) [29]: 217
- EVENTS (Pravastatin arm) [30]: 104
- NONEVENT (Pravastatin arm) [30]: 1068
- EVENTS (Pravastatin arm) [31]: 76
- NONEVENT (Pravastatin arm) [31]: 641
- EVENTS (Pravastatin arm) [32]: 15
- NONEVENT (Pravastatin arm) [32]: 123
- EVENTS (Pravastatin arm) [33]: 44
- NONEVENT (Pravastatin arm) [33]: 553
- EVENTS (Pravastatin arm) [34]: 74
- NONEVENT (Pravastatin arm) [34]: 613
- EVENTS (Pravastatin arm) [35]: 37
- NONEVENT (Pravastatin arm) [35]: 369
- EVENTS (Pravastatin arm) [36]: 56
- NONEVENT (Pravastatin arm) [36]: 649
- EVENTS (Pravastatin arm) [37]: 40
- NONEVENT (Pravastatin arm) [37]: 272
- EVENTS (Pravastatin arm) [38]: 64
- NONEVENT (Pravastatin arm) [38]: 554
- EVENTS (Pravastatin arm) [39]: 57
- NONEVENT (Pravastatin arm) [39]: 575
- EVENTS (Pravastatin arm) [40]: 5
- NONEVENT (Pravastatin arm) [40]: 28
- EVENTS (Pravastatin arm) [41]: 18
- NONEVENT (Pravastatin arm) [41]: 310
- EVENTS (Pravastatin arm) [42]: 109
- NONEVENT (Pravastatin arm) [42]: 947
- HR (hCV16189421, first genotype stratum listed (strata and endpoint not given)): 1
- HR (hCV16189421, second genotype stratum listed (strata and endpoint not given)): 0.67
- HR (hCV25630686, first genotype stratum listed (strata and endpoint not given)): 0.35
- HR (hCV25630686, second genotype stratum listed (strata and endpoint not given)): 0.81
- HR (hCV25631989, first genotype stratum listed (strata and endpoint not given)): 1.83
- HR (hCV25631989, second genotype stratum listed (strata and endpoint not given)): 0.72
- HR (hCV25644901, first genotype stratum listed (strata and endpoint not given)): 0.32
- HR (hCV25644901, second genotype stratum listed (strata and endpoint not given)): 0.86
